{"source": "ChEMBL document CHEMBL3045770", "about": "“Design and synthesis of some thieno[2,3-c]pyridazine derivatives of expected anticancer activity” (2013)", "assay_type_in_all_cases": "functional", "key": {"HCC 2998": {"system": "HCC 2998", "experiment": "Cytotoxicity against Homo sapiens (human) HCC2998 cells after 48 hr by SRB assay", "settings": "HCC 2998, 48 h"}, "IGROV-1": {"system": "IGROV-1", "experiment": "Cytotoxicity against Homo sapiens (human) IGROV1 cells after 48 hr by SRB assay", "settings": "IGROV-1, 48 h"}, "HCT-116": {"system": "HCT-116", "experiment": "Cytotoxicity against Homo sapiens (human) HCT116 cells after 48 hr by SRB assay", "settings": "HCT-116, 48 h"}, "SNB-75": {"system": "SNB-75", "experiment": "Cytotoxicity against Homo sapiens (human) SNB75 cells after 48 hr by SRB assay", "settings": "SNB-75, 48 h"}, "SK-OV-3": {"system": "SK-OV-3", "experiment": "Cytotoxicity against Homo sapiens (human) SKOV3 cells after 48 hr by SRB assay", "settings": "SK-OV-3, 48 h"}, "COLO 205": {"system": "COLO 205", "experiment": "Cytotoxicity against Homo sapiens (human) COLO205 cells after 48 hr by SRB assay", "settings": "COLO 205, 48 h"}, "UACC-62": {"system": "UACC-62", "experiment": "Cytotoxicity against Homo sapiens (human) UACC62 cells after 48 hr by SRB assay", "settings": "UACC-62, 48 h"}, "[1]": {"experiment": "Cytotoxicity against Homo sapiens (human) NCI-ADR-RES cells after 48 hr by SRB assay"}, "PC-3": {"system": "PC-3", "experiment": "Cytotoxicity against Homo sapiens (human) PC3 cells after 48 hr by SRB assay", "settings": "PC-3, 48 h"}, "NCI-H522": {"system": "NCI-H522", "experiment": "Cytotoxicity against Homo sapiens (human) NCI-H522 cells after 48 hr by SRB assay", "settings": "NCI-H522, 48 h"}, "SR": {"system": "SR", "experiment": "Cytotoxicity against Homo sapiens (human) SR cells after 48 hr by SRB assay"}, "SK-MEL-2": {"system": "SK-MEL-2", "experiment": "Cytotoxicity against Homo sapiens (human) SK-MEL-2 cells after 48 hr by SRB assay", "settings": "SK-MEL-2, 48 h"}, "NCI-H322M": {"system": "NCI-H322M", "experiment": "Cytotoxicity against Homo sapiens (human) NCI-H322M cells after 48 hr by SRB assay"}, "SN12C": {"system": "SN12C", "experiment": "Cytotoxicity against Homo sapiens (human) SN12C cells after 48 hr by SRB assay"}, "[2]": {"settings": "read-out: LC50 (the source's name)"}}, "data": [{"smiles": "Oc1c(-c2nnc(-c3ccc(Cl)cc3)o2)sc2nnc(-c3ccccc3)c(-c3ccccc3)c12", "values": [{"measurement": "GI50", "setting": "HCC 2998", "result": 4.99, "unit": "µM"}, {"measurement": "TGI", "setting": "HCC 2998", "result": 18.3, "unit": "µM"}, {"measurement": "GI50", "setting": "IGROV-1", "result": 3.66, "unit": "µM"}, {"measurement": "TGI", "setting": "IGROV-1", "result": 6.35, "unit": "µM"}, {"measurement": "CC50", "setting": "IGROV-1; [2]", "result": 0.0183, "unit": "µM"}, {"measurement": "GI50", "setting": "HCT-116", "result": 3.97, "unit": "µM"}, {"measurement": "TGI", "setting": "HCT-116", "result": 7.16, "unit": "µM"}, {"measurement": "GI50", "setting": "SNB-75", "result": 5.74, "unit": "µM"}, {"measurement": "TGI", "setting": "SNB-75", "result": 18.3, "unit": "µM"}, {"measurement": "GI50", "setting": "SK-OV-3", "result": 5.04, "unit": "µM"}, {"measurement": "TGI", "setting": "SK-OV-3", "result": 18.3, "unit": "µM"}, {"measurement": "CC50", "setting": "SK-OV-3; [2]", "result": 0.0183, "unit": "µM"}, {"measurement": "GI50", "setting": "COLO 205", "result": 4.7, "unit": "µM"}, {"measurement": "TGI", "setting": "COLO 205", "result": 18.3, "unit": "µM"}, {"measurement": "CC50", "setting": "COLO 205; [2]", "result": 0.0183, "unit": "µM"}, {"measurement": "GI50", "setting": "UACC-62", "result": 3.77, "unit": "µM"}, {"measurement": "TGI", "setting": "UACC-62", "result": 6.61, "unit": "µM"}, {"measurement": "GI50", "setting": "[1]", "result": 2.58, "unit": "µM"}, {"measurement": "TGI", "setting": "[1]", "result": 18.3, "unit": "µM"}, {"measurement": "GI50", "setting": "PC-3", "result": 4.09, "unit": "µM"}, {"measurement": "TGI", "setting": "PC-3", "result": 18.3, "unit": "µM"}, {"measurement": "CC50", "setting": "PC-3; [2]", "result": 0.0183, "unit": "µM"}, {"measurement": "GI50", "setting": "NCI-H522", "result": 4.34, "unit": "µM"}, {"measurement": "TGI", "setting": "NCI-H522", "result": 9.76, "unit": "µM"}, {"measurement": "GI50", "setting": "SR", "result": 4.52, "unit": "µM"}, {"measurement": "TGI", "setting": "SR", "result": 18.3, "unit": "µM"}, {"measurement": "GI50", "setting": "SK-MEL-2", "result": 4.13, "unit": "µM"}, {"measurement": "TGI", "setting": "SK-MEL-2", "result": 8.23, "unit": "µM"}, {"measurement": "GI50", "setting": "NCI-H322M", "result": 4.17, "unit": "µM"}, {"measurement": "TGI", "setting": "NCI-H322M", "result": 10.6, "unit": "µM"}, {"measurement": "CC50", "setting": "NCI-H322M; [2]", "result": 0.0183, "unit": "µM"}, {"measurement": "GI50", "setting": "SN12C", "result": 4.65, "unit": "µM"}, {"measurement": "TGI", "setting": "SN12C", "result": 17.6, "unit": "µM"}]}]}
